Measurements reported in patent US10597388B2, “Pyridazinone herbicides” (FMC CORPORATION, priority 2014, dated 2020).

What was measured:
Type in all cases: in vivo
[1] = tested on: blackgrass (Alopecurus myosuroides); assay: Test A greenhouse herbicide test, postemergence
How it was run: (§1)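 Visual injury score, 0 (no effect) to 100 (complete control), versus untreated controls roughly 10 d after postemergence spray; plants at one- to two-leaf stage, 2 to 10 cm tall, in loam soil and sand, kept in greenhouse.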

[2] = tested on: galium (catchweed bedstraw, Galium aparine); assay: Test A greenhouse herbicide test, postemergence
How it was run: as §1

[3] = tested on: barnyardgrass (Echinochloa crus-galli); assay: Test C greenhouse herbicide test, pre- and postemergence
How it was run: (§2)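 Pre- and postemergence greenhouse screen; values are visual control ratings, 0 meaning no effect and 100 complete kill, assigned relative to untreated plants after 13 to 15 d.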

[4] = tested on: crabgrass, large (large crabgrass, Digitaria sanguinalis); assay: as above
How it was run: as §2

[5] = tested on: foxtail, giant (giant foxtail, Setaria faberii); assay: as above
How it was run: as §2

[6] = tested on: galium (catchweed bedstraw, Galium aparine); assay: as above
How it was run: as §2

[7] = tested on: johnsongrass (Sorghum halepense); assay: as above
How it was run: as §2

[8] = tested on: lambsquarters (Chenopodium album); assay: as above
How it was run: as §2

[9] = tested on: morningglory (Ipomoea coccinea); assay: as above
How it was run: as §2

[10] = tested on: oilseed rape (Brassica napus); assay: as above
How it was run: as §2

[11] = tested on: ragweed (common ragweed, Ambrosia elatior); assay: as above
How it was run: as §2

[12] = tested on: ryegrass, Italian (Italian ryegrass, Lolium multiflorum); assay: as above
How it was run: as §2

[13] = tested on: wheat (winter wheat, Triticum aestivum); assay: as above
How it was run: as §2

[14] = 125 g ai/ha, 0 to 100 scale where 0 is no effect and 100 is complete control
[15] = 500 g ai/ha, 0 to 100 scale, 0 is no effect, 100 is complete control
[16] = Postemergence, 31 g ai/ha, 0 to 100 scale (0 no effect, 100 complete control)
[17] = Postemergence, 125 g ai/ha, scale 0 to 100, 0 is no effect, 100 is complete control
[18] = Postemergence, 250 g ai/ha, scale 0 to 100, 0 no effect, 100 complete control, 13 to 15 d
[19] = Preemergence, 31 g ai/ha, scale 0 to 100, 0 is no effect, 100 is complete control
[20] = Preemergence, 62 g ai/ha, scale 0 to 100, 0 is no effect, 100 is complete control
[21] = Preemergence, 125 g ai/ha, scale 0 to 100, 0 is no effect, 100 is complete control
[22] = Preemergence, 250 g ai/ha, scale 0 to 100, 0 no effect, 100 complete control
[23] = postemergence, 62 g ai/ha, scale 0 to 100, 0 no effect, 100 complete control

Question: How did the “Plant response rating, Blackgrass” value [1, 14] turn out when `CCc1sc2c(C)cc(C)cc2c1-c1c(O)c(C)nn(C)c1=O` [Compound 57] was run?
Answer: 30

Question: And the “Blackgrass plant response rating” value [1, 15]?
Answer: 60

Question: What about the “Plant response rating, Galium” value [2, 14] of the same compound?
Answer: 100

Question: And the “Galium plant response rating” value [2, 15]?
Answer: 100

Question: What about the “Barnyardgrass plant response rating” value [3, 16] of the same compound?
Answer: 90

Question: And the “Plant response rating, Barnyardgrass” value [3, 17]?
Answer: 95

Question: What about the “Plant response rating, Barnyardgrass” value [3, 18] of the same compound?
Answer: 98

Question: What about the “Plant response rating, Barnyardgrass” value [3, 19] of the same compound?
Answer: 5

Question: What about the “Plant response rating, Barnyardgrass” value [3, 20] of the same compound?
Answer: 90

Question: What about the “Plant response rating, Barnyardgrass” value [3, 21] of the same compound?
Answer: 100

Question: And the “Barnyardgrass plant response rating” value [3, 22]?
Answer: 100

Question: And the “Barnyardgrass plant response rating” value [3, 23]?
Answer: 95

Question: And the “Crabgrass, Large plant response rating” value [4, 16]?
Answer: 10

Question: And the “Plant response rating, Crabgrass, Large” value [4, 17]?
Answer: 30

Question: What about the “Plant response rating, Crabgrass, Large” value [4, 18] of the same compound?
Answer: 35

Question: And the “Plant response rating, Crabgrass, Large” value [4, 19]?
Answer: 0

Question: And the “Plant response rating, Crabgrass, Large” value [4, 20]?
Answer: 35

Question: And the “Plant response rating, Crabgrass, Large” value [4, 21]?
Answer: 98

Question: And the “Crabgrass, Large plant response rating” value [4, 22]?
Answer: 100

Question: What about the “Crabgrass, Large plant response rating” value [4, 23] of the same compound?
Answer: 20

Question: And the “Foxtail, Giant plant response rating” value [5, 16]?
Answer: 70

Question: And the “Plant response rating, Foxtail, Giant” value [5, 17]?
Answer: 85

Question: What about the “Plant response rating, Foxtail, Giant” value [5, 18] of the same compound?
Answer: 95

Question: And the “Plant response rating, Foxtail, Giant” value [5, 19]?
Answer: 45

Question: What about the “Plant response rating, Foxtail, Giant” value [5, 20] of the same compound?
Answer: 80

Question: And the “Plant response rating, Foxtail, Giant” value [5, 21]?
Answer: 90

Question: And the “Foxtail, Giant plant response rating” value [5, 22]?
Answer: 100

Question: What about the “Foxtail, Giant plant response rating” value [5, 23] of the same compound?
Answer: 70

Question: What about the “Galium plant response rating” value [6, 16] of the same compound?
Answer: 95

Question: What about the “Plant response rating, Galium” value [6, 17] of the same compound?
Answer: 95

Question: What about the “Plant response rating, Galium” value [6, 18] of the same compound?
Answer: 100

Question: What about the “Plant response rating, Galium” value [6, 19] of the same compound?
Answer: 80

Question: What about the “Plant response rating, Galium” value [6, 20] of the same compound?
Answer: 90

Question: And the “Plant response rating, Galium” value [6, 21]?
Answer: 95

Question: And the “Galium plant response rating” value [6, 22]?
Answer: 98

Question: What about the “Galium plant response rating” value [6, 23] of the same compound?
Answer: 95

Question: And the “Johnsongrass plant response rating” value [7, 16]?
Answer: 5

Question: And the “Plant response rating, Johnsongrass” value [7, 17]?
Answer: 5

Question: And the “Plant response rating, Johnsongrass” value [7, 18]?
Answer: 10

Question: What about the “Plant response rating, Johnsongrass” value [7, 19] of the same compound?
Answer: 0

Question: What about the “Plant response rating, Johnsongrass” value [7, 20] of the same compound?
Answer: 0

Question: And the “Plant response rating, Johnsongrass” value [7, 21]?
Answer: 0

Question: What about the “Johnsongrass plant response rating” value [7, 22] of the same compound?
Answer: 0

Question: What about the “Johnsongrass plant response rating” value [7, 23] of the same compound?
Answer: 5

Question: What about the “Lambsquarters plant response rating” value [8, 16] of the same compound?
Answer: 70

Question: And the “Plant response rating, Lambsquarters” value [8, 17]?
Answer: 95

Question: What about the “Plant response rating, Lambsquarters” value [8, 18] of the same compound?
Answer: 90

Question: And the “Plant response rating, Lambsquarters” value [8, 19]?
Answer: 100

Question: And the “Plant response rating, Lambsquarters” value [8, 20]?
Answer: 100

Question: And the “Plant response rating, Lambsquarters” value [8, 21]?
Answer: 100

Question: And the “Lambsquarters plant response rating” value [8, 22]?
Answer: 100

Question: What about the “Lambsquarters plant response rating” value [8, 23] of the same compound?
Answer: 70

Question: What about the “Morningglory plant response rating” value [9, 16] of the same compound?
Answer: 95

Question: And the “Plant response rating, Morningglory” value [9, 17]?
Answer: 100

Question: And the “Plant response rating, Morningglory” value [9, 18]?
Answer: 100

Question: What about the “Plant response rating, Morningglory” value [9, 19] of the same compound?
Answer: 100

Question: What about the “Plant response rating, Morningglory” value [9, 20] of the same compound?
Answer: 100

Question: And the “Plant response rating, Morningglory” value [9, 21]?
Answer: 100

Question: And the “Morningglory plant response rating” value [9, 22]?
Answer: 100

Question: What about the “Morningglory plant response rating” value [9, 23] of the same compound?
Answer: 100

Question: And the “Oilseed Rape plant response rating” value [10, 16]?
Answer: 0

Question: And the “Plant response rating, Oilseed Rape” value [10, 17]?
Answer: 0

Question: And the “Plant response rating, Oilseed Rape” value [10, 18]?
Answer: 5

Question: What about the “Plant response rating, Oilseed Rape” value [10, 19] of the same compound?
Answer: 0

Question: What about the “Plant response rating, Oilseed Rape” value [10, 20] of the same compound?
Answer: 0

Question: And the “Plant response rating, Oilseed Rape” value [10, 21]?
Answer: 30

Question: And the “Oilseed Rape plant response rating” value [10, 22]?
Answer: 60

Question: What about the “Oilseed Rape plant response rating” value [10, 23] of the same compound?
Answer: 0

Question: And the “Ragweed plant response rating” value [11, 16]?
Answer: 60

Question: And the “Plant response rating, Ragweed” value [11, 17]?
Answer: 85

Question: What about the “Plant response rating, Ragweed” value [11, 18] of the same compound?
Answer: 95

Question: What about the “Plant response rating, Ragweed” value [11, 19] of the same compound?
Answer: 70

Question: And the “Plant response rating, Ragweed” value [11, 20]?
Answer: 95

Question: What about the “Plant response rating, Ragweed” value [11, 21] of the same compound?
Answer: 100

Question: And the “Ragweed plant response rating” value [11, 22]?
Answer: 100

Question: What about the “Ragweed plant response rating” value [11, 23] of the same compound?
Answer: 90

Question: What about the “Ryegrass, Italian plant response rating” value [12, 16] of the same compound?
Answer: 25

Question: And the “Plant response rating, Ryegrass, Italian” value [12, 17]?
Answer: 50

Question: What about the “Plant response rating, Ryegrass, Italian” value [12, 18] of the same compound?
Answer: 60

Question: And the “Plant response rating, Ryegrass, Italian” value [12, 19]?
Answer: 45

Question: What about the “Plant response rating, Ryegrass, Italian” value [12, 20] of the same compound?
Answer: 65

Question: What about the “Plant response rating, Ryegrass, Italian” value [12, 21] of the same compound?
Answer: 70

Question: What about the “Ryegrass, Italian plant response rating” value [12, 22] of the same compound?
Answer: 85

Question: What about the “Ryegrass, Italian plant response rating” value [12, 23] of the same compound?
Answer: 30

Question: What about the “Wheat plant response rating” value [13, 16] of the same compound?
Answer: 0

Question: And the “Plant response rating, Wheat” value [13, 17]?
Answer: 0

Question: And the “Plant response rating, Wheat” value [13, 18]?
Answer: 5

Question: And the “Plant response rating, Wheat” value [13, 19]?
Answer: 0

Question: And the “Plant response rating, Wheat” value [13, 20]?
Answer: 0

Question: And the “Plant response rating, Wheat” value [13, 21]?
Answer: 0

Question: What about the “Wheat plant response rating” value [13, 22] of the same compound?
Answer: 5

Question: What about the “Wheat plant response rating” value [13, 23] of the same compound?
Answer: 0
